How the values were obtained:
β-lactamase = details: natural metabolites isolated from Streptomyces culture; cited from earlier work
[1] = isolation to be done in the dark at low temperatures; cited from earlier work
KB cells = assay: cells; format: cell-based; details: Homo sapiens, 72 h, read-out: Cytotoxicity TD50 KB
Description: In vitro KB cell cytoxocity assay was done by modification of the crystal violet assay (Grillis et al., Anal Biochem., 159, 109-113 (1986).
KB cells were cultivated in Eagles minimum essential medium supplemented with 10% calf serum and incubated at 37° C. in a humidified 5% CO2 atmosphere to prepare a cell stock. Cells were counted using a neubauer hemocytometer and seeded in 96 well plates at 100 μl of 3×10^4 cells/ml and cultured for one day. Test compounds were diluted and 100 .parallel.l of the solution was added in triplicate wells to give final concentration of 10, 5, 1, 0.5, 0.1, 0.05 and 0.01 μg/ml. Control wells were identical except that test compound was absent. These were cultured for three days. Then the cells were fixed with addition of 20 μl of 25% glutaraldehyde for 15 minutes, washed with water and dried. Then stained with 100 μl of 0.05% crystal violet for 15minutes, washed with water and dried. The wells are eluted with 100 μl of 0.05M NaH2 PO4 /ethanol (1:1 v/v) and read at OD540 on a multiscan spectrophotometer. Inhibition value of cell Growth was calculated based on optical density using the following equation; [formula] TD50 values were calculated from linear recression ines of the log-logit plot.

L1210 cells = assay: cells; format: cell-based; details: Mus musculus, L1210, 72 h, read-out: Cytotoxicity TD50 L-1210
Description: Vitro L1210 Cell Cytoxocity Assay
In vitro :L1210 cell cytotoxicity assay was done by the method of microculture tetrazolium assay (Alley et al., Cancer Research, 48, 589-601 (1988).
L1210 cells were cultivated in RPMI 1640 medium supplemented with 10% fetal calf serum and […] of 2-mercaptoethanol at 37° C. in humidified 5% CO2 atmosphere no prepare a cell stock. Cells were counted using neubauer hemocytometer and seed in 96 well plates at 100 μl of 0.5×10^4 cells per ml. The test compounds were diluted and 100 μl of the solution was added in triplicate wells to give the final concentration of 10, 5, 1, 0.5, 0.1, 0.05 and 0.01 μg/ml. Control wells were identical except :hat the test compound was absent. These were cultured for three days. Results were assayed using the microculture tetrazolium assay briefly. 50 μl of MTT formazoan working solution (1:5 v/v in culture medium) was added to each well and cultures were incubated at 37° C. for 4 hrs. Culture plates were centrifuged at low speed for 5 minutes. All but 10-20 μl of culture medium supernatant was removed by slow aspiration and […] and read at OD540 on a multiscan spectrophotometer. Inhibition value of cell growth was calculated based on optical density using the following equation; [formula] TD50 values were calculated from linear depression ines of the log-logit plot.

Sarcoma 180 = assay: In Vivo Antitumor Activity Against Sarcoma 180; design: species or system male ICR mice; details: s.c. - i.p., days 1, 5 and 9, tumor weight on day 12
Description: The compounds of general formula (I) were tested in vivo against Sarcoma 180 xenografted tumor to mice as illustrated herein after.
Sarcoma 180, 5×10^6 cells were inoculated by S.C. to male ICR mice (6 weeks old) on day 0. Drugs were administered on days 1,5 and 9. Mice were killed and tumor weight was measured on day 12 after transplantation. The percentage inhibition of tumor growth was calculated from the mean tumor weight of the treated group compared with that of the control group. Number of mice used in each group was between 6 to 10.

Compound	β-lactamase inhibitory properties (β-lactamase)	chemical stability [1]	IC50 (KB cells) [µg/mL]	IC50 (L1210 cells) [µg/mL]	% Inhibition in 12 days (tumor growth, tumor weight) (Sarcoma 180; 1.56 mg/kg/day) [%]	% Inhibition in 12 days (tumor growth, tumor weight) (Sarcoma 180; 3.13 mg/kg/day) [%]
CC(C)C(N)C(=O)NC(C(=O)O)C(O)C1CN2C(=O)CC2O1 (centres unmarked) [G0069A]	None of the above metabolites exhibited β-lactamase inhibitory properties	chemicalyl unstable				
O=C(N[C@H](C[C@@H]1CN2C(=O)C[C@@H]2O1)C(=O)OC(c1ccccc1)c1ccccc1)OCc1ccccc1 (mixture of isomers) [10B, N-(benzyloxycarbonyl)-3-[(3RS,5SR)-7-oxo-1-aza-4-oxabicyclo[3.2.0]hept-3-yl]-D-alanine diphenylmethyl ester]			1.78	7.5		
N[C@@H](C[C@@H]1CN2C(=O)C[C@@H]2O1)C(=O)O (mixture of isomers) [compound 11, 3-[(3RS,5SR)-7-oxo-1-aza-4-oxabicyclo[3,2,0]hept-3-yl]-L-alanine]			0.023	0.1	71.4	79.5
N[C@H](C[C@@H]1CN2C(=O)C[C@@H]2O1)C(=O)O (mixture of isomers) [compound 12, 3-[(3RS,5SR)-7-oxo-1-aza-4-oxabicyclo[3.2.0]hept-3-yl]-D-alanine]			0.098			
O=C(N[C@@H](C[C@@H]1CN2C(=O)C[C@@H]2O1)C(=O)OC(c1ccccc1)c1ccccc1)OCc1ccccc1 (mixture of isomers) [10A, N-Benzyloxycarbonyl-3-[(3RS,5SR)-7-oxo-1-aza-4-oxabicyclo [3.2.0]hept-3-yl]-L-alanine diphenylmethyl ester]			3.17	10		

From patent publication US5652234A, “3-(7-oxo-1-aza-4-oxabicyclo[3.2.0]hept-3-yl)alanine derivative as antitumor agent” (Taiho Pharmaceutical Co., Limited, priority 1994, dated 1997)
